Tests used:
[1] = tested on: Salmonella typhimurium TA100; test: Bacterial reverse mutation assay (MUTA-CHROMOPLATE kit); details: Background = 20, Blank = 0
Description: Ac-B was examined for its ability to produce mutations/revert mutations in a bacterial reverse mutation assay using amino acid-requiring strain of Salmonella typhimurium (S. typhimurium) TA100 and the result was compared with a known mutagen (Na-azide). A commercial kit (The MUTA-CHROMOPLATE) from M/s Environmental Biodetection Products Inc. Ontario, Canada, was used. Suspensions of bacterial cells were exposed to the test substance in the presence and in the absence of an exogenous metabolic activation system. After 5 days of incubation, revertant colonies were detected by the change of colour from blue to yellow on solvent control plates. All yellow, partially yellow or turbid wells were scored as positive, while all purple wells were scored as negative. Number of positive wells for each plate was recorded, their number was counted and compared to that of spontaneous revertant colonies. The “Background” (i.e. no test material added) plate was used as reference for the level of spontaneous or background mutation of the assay organism. The statistical difference was determined using a table provided with the kit.
Score of mutagenicity as per the set criteria of Muta-Chromoplate test kit.

mouse spermatozoa = test: Sander & Cramer spermicidal assay (in vitro); format: cell-based; details: Mouse spermatozoa (N = 10); all immobilized within 20 seconds
Description: (§1) Sexually mature male mice and rats were autopsied following euthanasia by an overdose of Ketamin (≧200 mg/kg body weight; injected i.p.) and their cauda epididymis were excised. Working suspension of animal spermatozoa was prepared with the exudates obtained after careful pricking of the cauda epididymis with an injection needle (18 G) and the exudates were collected in a conical centrifuge tube.
(§2) The exudates/liquefied human semen samples were suspended in BWW medium (pre equilibrated at 37 degree C.). The spermatozoa with forward motility were separated from immotile or sluggishly motile cells by the swim-up technique and were allowed to disperse evenly within a CO2 incubator at 37 degree C. At least five aliquots from each sample was used to prepare the working spermatozoa suspension. The swim up procedure was as follows:
(§3) Pre equilibrated BWW medium (1.25 ml) was gently layered over cauda-exudates or liquefied human semen (1 ml) in a sterile 15 ml conical-based centrifuge tube. The tube was inclined at an angle of 45 degree and incubated for 1 hour at 37 degree C. in a CO2-incubator. It was then gently returned to the upright position and the uppermost 1 ml medium with a turbid appearance was removed. This aliquot of motile cells was pooled from each set, then diluted with same volumes of pre equilibrated BWW medium, centrifuged at 500 g for 5 minutes and finally resuspended in 1 ml pre equilibrated BWW medium to obtain a working suspension. The sperm cells were counted in a Makler chamber (Zygotec Systems, Springfield, M A, USA) and finally a working spermatozoa suspension having concentration of 25 to 30×10^6 cells/ml was prepared.
(§4) For in vitro assay of spermicidal effect, sperms collected from proven male rats and mice, and motile spermatozoa from liquefied human semen were used.
(§5) The assay was done following the Sander & Cramer assay method. Two hundred micro liter (200 microliters) of working spermatozoa suspension was added to 1 ml solution of test material in BWW medium and mixed on a light vortex for 10 seconds. A wet mount was immediately prepared on a clean microscopy glass slide and examined (at ×100) under a phase contrast microscope (Leitz, Biomed). The weakest concentration that immobilized all spermatozoa within 20 seconds of mixing was recorded as MEC. At least five fields were examined for each wet mount preparation. The observation was repeated with five individual spermatozoa suspension for each concentration of test compound solution. For negative control, saponin solutions were replaced by equal volume of BWW medium, while Nonoxynol 9 was used as positive control.

rat spermatozoa = test: Sander & Cramer spermicidal assay (in vitro); format: cell-based; details: Rat spermatozoa (N = 10); all immobilized within 20 seconds
Description: as §1, §2, §3, §4, §5

human spermatozoa [2] = test: Sander & Cramer spermicidal assay (in vitro); format: cell-based; details: Human spermatozoa (N = 5); weakest concentration immobilizing all spermatozoa within 20 seconds
Description: as §2, §3, §4, §5

human spermatozoa [3] = details: cited from earlier work

Compound: [N-]=[N+]=[N-].[Na+] [Na-azide, reference compound]
- No. of '+' wells (Muta-Chromoplate score) [1]: 74

Compound: isononyl-phenyl-polyoxyethylene (9) ether [Nonoxynol 9, reference compound]
- MEC as per Sander and Cramer Test (mouse spermatozoa): 350 (±10) microgram per ml
- MEC as per Sander and Cramer Test (rat spermatozoa): 350 (±10) microgram per ml
- MEC as per Sander and Cramer Test (human spermatozoa [2]): >350 microgram per ml
- MEC for N-9 (human spermatozoa [3]; closest prior arts): 200-500 microgram per ml
- MEC of N-9 for spermicidal action (human spermatozoa [3]; comparison value in concluding remarks): 200-500 microgram
